Experimental data taken from patent publication US10603335B2, “Cancer treatment combination compositions, methods and uses” (Board of Supervisors of Louisiana State University and …, priority 2016, dated 2020).

How the values were obtained:
Panc-1 cells spheroids = experiment: 3D spheroid growth (IncuCyte ZOOM), Panc-1; format: cell-based; settings: LHRH 30 μM, LHRH-curcumin 30 μM
Experimental: A protocol that enables the growth of identical size single cancer cell spheroids in Matrigel in 96 well plates has been developed.
Panc-1 and Mia-Paca-2 cells were grown in 10% FBS DMEM. Cells were collected after trypsinization and resuspended in phenol-red free DMEM with 10% FBS. Cells were labeled with CellTracker Red (Life Techmologies) for 5 minutes. After labeling cells were washed with PBS and transfer into 96-well Corning 7007 ULA round bottom plates at 1,000 cells/well in 100 μl phenol-red free media with 10% FBS and 5% Matrigel. […] Spheroids were grown at 37° C. and 5% CO2 in IncuCyte ZOOM (Essen Bioscience). Images were acquired every 4 h for a period of 120 h post-treatment and software analysis was design to identify the red object in the well. The data were expressed as fold increase in spheroids size at the end of the treatment using the “average red object area in the well” as determined by the IncuCyte software analysis. Reproducibility was confirmed in three independent experiments. Spheroids grew at a uniform rate (FIG. 1).

[1] = test system: non-target control (NT) Panc-1 spheroides; experiment: 3D spheroid growth, non-target control (NT) Panc-1; format: cell-based; settings: 30 μM
[2] = test system: cleaved PARP, XIAP and cIAP2 in BxPC-3 cells; experiment: Western blot of apoptosis markers and inhibitors of apoptosis, BxPC-3; format: cell-based; settings: for XIAP and c-IAP2 protein levels: 24 h
Experimental: (§1) Pancreatic cells were collected after trypsinization and seeded in 12-well plates for 24 h before treatments. Treatments were performed as described in the Figure legends. Following treatment, whole cell lysates were collected in Laemmli buffer and analyzed by Western blot. The following primary antibodies were used: XIAP, c-IAP2, cleaved PARP, Caspase-3 (all from Cell Signaling), actin (Santa Cruz) and LHRHR (Abcam).
(§2) Western blot analysis. Actin, GAPDH and Ponceau staining were used as loading controls. Gemcitabine was diluted in water. Curcumin and LHRH-curcumin were diluted in DMSO. Cells were treated as follows:
(§3) Western blot analysis. Actin, GAPDH and Ponceau staining were used as loading controls. Gemcitabine was diluted in water. Curcumin and LHRH-curcumin were diluted in DMSO.

[3] = test system: cleaved PARP, XIAP and cIAP2 in AsPC-1 cells; experiment: Western blot of apoptosis markers and inhibitors of apoptosis, AsPC-1; format: cell-based; settings: for XIAP and c-IAP2 protein levels: 24 h
Experimental: as §1, §2, §3

[4] = test system: cleaved PARP, XIAP and cIAP2 in Panc-1 cells; experiment: Western blot of apoptosis markers and inhibitors of apoptosis, Panc-1; format: cell-based; settings: for XIAP and c-IAP2 protein levels: 24 h
Experimental: as §1, §2
(§4) Western blot analysis. Actin, GAPDH and Ponceau staining were used as loading controls. Gemcitabine was diluted in water. Curcumin and LHRH-curcumin were diluted in DMSO. The cells were treated as follows:
(§5) Western blot analysis. Actin was used as loading control. Both gemcitabine and LHRH-curcumin were diluted in water.

[5] = test system: cleaved PARP, XIAP and cIAP2 in MiaPaca-2 cells; experiment: Western blot of apoptosis markers and inhibitors of apoptosis, MiaPaca-2; format: cell-based, human; settings: for XIAP and c-IAP2 protein levels: 24 h
Experimental: as §1, §2, §4, §5

[6] = test system: XIAP, cIAP1 and cIAP2 mRNA in Panc-1 cells; experiment: Quantitative PCR of inhibitors of apoptosis, Panc-1; format: cell-based; settings: 50 uM, 24 h post-treatment, relative to DMSO, GAPDH reference
Experimental: mRNA levels of XIAP, c-IAP1 and c-IAP2 were determined by quantitative real-time PCR using the SYBR Green Real-Time PCR Master Mix form ThermoFisher. Thermal cycling was carried out using the CFX system from BioRad under the following conditions: 95° C. for 10 min and 40 cycles at 95° C. for 15 s and 55° C. for 60 s. mRNA expression for any given gene is represented as comparative to the DMSO-treated cells. GAPDH was used as the housekeeping gene of reference.
GAPDH was used as a reference. Results presented in FIG. 12A (XIAP relative mRNA levels), FIG. 12B (cIAP1 relative mRNA levels), FIG. 12C (cIAP2 relative mRNA levels).

[7] = 50 uM in the presence of gemcitabine (5 uM)
[8] = curcumin, LHRH-curcumin 50 uM and 100 uM alone, gemcitabine alone
[9] = 24 h post-treatment, curcumin, LHRH-curcumin 10-100 uM, gemcitabine 1-20 uM

luteinizing hormone releasing hormone (EHWSYGLRPG) [LHRH, Gonadotropin-releasing hormone (GnRH, also called luteinizing hormone releasing hormone or LHRH), reference compound]
spheroids growth (Panc-1 cells spheroids): inhibitory effect on spheroids growth
spheroids growth [1]: inhibitory effect on NT Panc-1 spheroids growth

COc1cc(/C=C/C(=O)CC(=O)/C=C/c2ccc(O)c(OC)c2)ccc1O [curcumin]
XIAP and c-IAP2 protein levels [2, 7]: down-regulated
XIAP and c-IAP2 protein levels [2, 8]: down-regulated
apoptosis marker cleaved PARP [2, 9]: initiate apoptosis as illustrated by the presence of cleaved PARP
XIAP and c-IAP2 protein levels [3, 7]: down-regulated
XIAP and c-IAP2 protein levels [3, 8]: down-regulated
apoptosis marker cleaved PARP [3, 9]: initiate apoptosis as illustrated by the presence of cleaved PARP
XIAP and c-IAP2 protein levels [4, 7]: down-regulated
XIAP and c-IAP2 protein levels [4, 8]: down-regulated
apoptosis marker cleaved PARP [4, 9]: initiate apoptosis as illustrated by the presence of cleaved PARP
XIAP and c-IAP2 protein levels [5, 7]: down-regulated
XIAP and c-IAP2 protein levels [5, 8]: down-regulated
apoptosis marker cleaved PARP [5, 9]: initiate apoptosis as illustrated by the presence of cleaved PARP
mRNA levels of XIAP, cIAP1 and c-IAP2 [6]: down-regulated
